Experimental data from patent US20230109839A1, “THERAPEUTIC AGENT FOR TAUOPATHIES” (SUMITOMO PHARMA CO., LTD., priority 2020, published 2023).

Target: T1, human Nav1.1 (Homo sapiens, UniProt P35498)
T1 construct: host or cells: HEK293
Assay: Amplification of Nav1.1-derived voltage-gated sodium current (Nav1.1 current), automated patch clamp (Test 1)
Type: cell-based
Conditions: HEK293 cell line stably expressing human Nav1.1
In short: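 HEK293 cells stably expressing human Nav1.1, restricted to cells with >500 pA current, were recorded by automated voltage-clamp patch clamp with a ramp voltage stimulus. Compounds were applied in HEPES-buffered extracellular solution with 1% DMSO. Amplification (%) = 100×(peak or AUC after/before compound)−100.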

[1] = Concentration for evaluation 10 μM
[2] = Concentration for evaluation 3 μM
[3] = Concentration for evaluation 50 μM
[4] = Concentration for evaluation 1 μM

Row | SMILES | Nav1.1 current amplification rate (%) [1] [%] | other results
1 | CC1CC=C(c2ccc(=O)n(CC(=O)N3CC=C(c4ccccc4)C3)n2)CC1 (stereo not shown) [Example 388] | 37 | –
2 | CC1CC=C(c2ccc(=O)n(CC(=O)N3CCC(Cc4ccccc4)C3)n2)CC1 (stereo not shown) [Example 389] | 53 | –
3 | CC1CC=C(c2ccc(=O)n(CC(=O)N3CC=C(c4cncc(F)c4)CC3)n2)CC1 (stereo not shown) [Example 397] | 273 | –
4 | CC1CC=C(c2ccc(=O)n(CC(=O)N3CC=C(c4cncnc4)CC3)n2)CC1 (stereo not shown) [Example 398] | 175 | –
5 | COc1cnc(C2=CCN(C(=O)Cn3nc(C4=CCC(C)CC4)ccc3=O)CC2)cn1 (stereo not shown) [Example 399] | 102 | –
6 | COc1ncc(C2=CCN(C(=O)Cn3nc(C4=CCC(C)CC4)ccc3=O)CC2)cn1 (stereo not shown) [Example 400] | 238 | –
7 | COc1cncc(C2=CCN(C(=O)Cn3nc(C4=CCC(C)CC4)ccc3=O)CC2)c1 (stereo not shown) [Example 403] | 270 | –
8 | CC1CC=C(c2ccc(=O)n(CC(=O)N3CC=C(c4nccc5occc45)CC3)n2)CC1 (stereo not shown) [Example 404] | 42 | –
9 | CC1CC=C(c2ccc(=O)n(CC(=O)N3CCN(c4cncc(OC(F)F)c4)CC3)n2)CC1 (stereo not shown) [Example 405] | – | Nav1.1 current amplification rate (%) [2]: 268%
10 | Cc1nc(N2CCN(C(=O)Cn3nc(C4=CCC(C)CC4)ccc3=O)CC2)no1 (stereo not shown) [Example 406] | – | Nav1.1 current amplification rate (%) [3]: 68%
11 | COc1ccc(N2CCN(C(=O)Cn3nc(C4=CCC(C)CC4)ccc3=O)CC2)cn1 (stereo not shown) [Example 407] | – | Nav1.1 current amplification rate (%) [2]: 113%
12 | CC1CC=C(c2ccc(=O)n(CC(=O)N3CCN(C4CCCOC4)CC3)n2)CC1 (stereo not shown) [Example 408] | – | Nav1.1 current amplification rate (%) [3]: 80%
13 | COc1ncc(N2CCN(C(=O)Cn3nc(C4=CCC(C)CC4)ccc3=O)CC2)cc1F (stereo not shown) [Example 409] | – | Nav1.1 current amplification rate (%) [2]: 244%
14 | CC1CC=C(c2ccc(=O)n(CC(=O)N3CCN(C4CCOCC4)CC3)n2)CC1 (stereo not shown) [Example 411] | – | Nav1.1 current amplification rate (%) [3]: 18%
15 | CC1CC=C(c2ccc(=O)n(CC(=O)N3CCN(c4ccn(C)n4)CC3)n2)CC1 (stereo not shown) [Example 412] | – | Nav1.1 current amplification rate (%) [3]: 36%
16 | COc1cc(N2CCN(C(=O)Cn3nc(C4=CCC(C)CC4)ccc3=O)CC2)ccc1F (stereo not shown) [Example 413] | – | Nav1.1 current amplification rate (%) [2]: 27%
17 | CC1CC=C(c2ccc(=O)n(CC(=O)N3C[C@@H](C)N(c4cccnc4)[C@@H](C)C3)n2)CC1 (stereo partly shown) [Example 416] | 383 | –
18 | COc1cnc(C)c(N2CCN(C(=O)Cn3nc(C4=CCC(C)CC4)ccc3=O)CC2)c1 (stereo not shown) [Example 418] | – | Nav1.1 current amplification rate (%) [2]: 105%
19 | CC1CC=C(c2ccc(=O)n(CC(=O)N3CC=C(c4ccncc4)CC3)n2)CC1 (stereo not shown) [Example 419] | – | Nav1.1 current amplification rate (%) [4]: 66%

Row | SMILES | Nav1.1 current amplification rate (%) [1] [%] | other results
20 | CC1(C)CC=C(c2ccc(=O)n(CC(=O)Nc3ccn4ccnc4c3)n2)CC1 [Example 425] | 283 | –
21 | CC1(C)CC=C(c2ccc(=O)n(CC(=O)Nc3ccc4c(c3)OCC4)n2)CC1 [Example 426] | 244 | –
22 | CC1(C)CC=C(c2ccc(=O)n(CC(=O)Nc3ccn4nccc4c3)n2)CC1 [Example 427] | 172 | –
23 | COc1ccc2c(c1)CCN2C(=O)Cn1nc(C2=CCC(C)(C)CC2)ccc1=O [Example 430] | 28 | –
24 | COc1cccc2c1CCN2C(=O)Cn1nc(C2=CCC(C)(C)CC2)ccc1=O [Example 431] | 11 | –
25 | CC1(C)CC=C(c2ccc(=O)n(CC(=O)N3CCc4c(N5CCOCC5)cccc43)n2)CC1 [Example 432] | – | Nav1.1 current amplification rate (%) [4]: 280%
26 | CN1CCN(c2cccc3c2CCN3C(=O)Cn2nc(C3=CCC(C)(C)CC3)ccc2=O)CC1 [Example 433] | 192 | –
27 | COC1CN(c2cccc3c2CCN3C(=O)Cn2nc(C3=CCC(C)(C)CC3)ccc2=O)C1 [Example 434] | 232 | –
28 | COCOc1cccc2c1CCN2C(=O)Cn1nc(C2=CCC(C)(C)CC2)ccc1=O [Example 435] | 262 | –
29 | CC1(C)CC=C(c2ccc(=O)n(CC(=O)N3CCc4c(OC5COC5)cccc43)n2)CC1 [Example 436] | 226 | –
30 | CC1(C)CC=C(c2ccc(=O)n(CC(=O)N3CCc4c(C5CN(C(=O)CO)C5)cccc43)n2)CC1 [Example 437] | – | Nav1.1 current amplification rate (%) [2]: 582%
31 | CC1(C)CC=C(c2ccc(=O)n(CC(=O)N3CCc4c(C5CN(C6COC6)C5)cccc43)n2)CC1 [Example 438] | – | Nav1.1 current amplification rate (%) [2]: 404%
32 | CC1(C)CC=C(c2ccc(=O)n(CC(=O)N3CCC4(CCOCC4)CC3)n2)CC1 [Example 441] | 30 | –
33 | Cc1cncc(N2CCN(C(=O)Cn3nc(C4=CCC(C)(C)CC4)ccc3=O)CC2)c1 [Example 442] | 414 | –
34 | CC1(C)CC=C(c2ccc(=O)n(CC(=O)N3CCN(c4cncc(F)c4)CC3)n2)CC1 [Example 444] | 292 | –
35 | COc1cc(=O)n(CC(=O)Nc2ccc3ocnc3c2)nc1C1=CCC(C)(C)CC1 [Example 451] | 365 | –
36 | Cc1ccc(-c2ccc(=O)n(CC(=O)Nc3ccc4ocnc4c3)n2)cn1 [Example 452] | 10 | –
37 | O=C(Cn1nc(-c2ccc(C(F)(F)F)nc2)ccc1=O)Nc1ccc2ocnc2c1 [Example 453] | 15 | –
38 | O=C(Cn1nc(-c2cc(Cl)cs2)ccc1=O)Nc1ccc2ocnc2c1 [Example 454] | 157 | –

Continued, in another order:

Row | Nav1.1 current amplification rate (%) [1] [%] | SMILES | other results
39 | 50 | CC1CC=C(c2ccc(=O)n(CC(=O)N3CCC(Oc4ccccc4)CC3)n2)CC1 (stereo not shown) [Example 390] | –
40 | 53 | CC1CC=C(c2ccc(=O)n(CC(=O)N3CCN(Cc4ccncc4)CC3)n2)CC1 (stereo not shown) [Example 392] | –
41 | 19 | CC1CC=C(c2ccc(=O)n(CC(=O)N3CCN(Cc4cccnc4)CC3)n2)CC1 (stereo not shown) [Example 393] | –
42 | 98 | CC1CC=C(c2ccc(=O)n(CC(=O)N3CCN(c4ccccn4)CC3)n2)CC1 (stereo not shown) [Example 394] | –
43 | 343 | CC1CC=C(c2ccc(=O)n(CC(=O)N3CCN(c4cccnc4)CC3)n2)CC1 (stereo not shown) [Example 395] | –
44 | 136 | Cc1ccc(N2CCN(C(=O)Cn3nc(C4=CCC(C)CC4)ccc3=O)CC2)cn1 (stereo not shown) [Example 396] | –
45 | 286 | CC1CC=C(c2ccc(=O)n(CC(=O)N3CCN(c4cncc(C(F)(F)F)c4)CC3)n2)CC1 (stereo not shown) [Example 401] | –
46 | 323 | CC1CC=C(c2ccc(=O)n(CC(=O)N3CC=C(c4cccnc4)CC3)n2)CC1 (stereo not shown) [Example 402] | –
47 | 40 | CC1CC=C(c2ccc(=O)n(CC(=O)N3CCN(c4nccs4)CC3)n2)CC1 (stereo not shown) [Example 414] | –
48 | 93 | CC1CC=C(c2ccc(=O)n(CC(=O)N3CCN(c4cnn(C)c4)CC3)n2)CC1 (stereo not shown) [Example 415] | –
49 | 39 | CC1CC=C(c2ccc(=O)n(CC(=O)N3CC=C(c4ccccn4)CC3)n2)CC1 (stereo not shown) [Example 420] | –
50 | 87 | CC1(C)CC=C(c2ccc(=O)n(CC(=O)N3CCN(c4ccccn4)CC3)n2)CC1 [Example 439] | –
51 | 196 | CC1(C)CC=C(c2ccc(=O)n(CC(=O)N3CCN(c4cccnc4)CC3)n2)CC1 [Example 440] | –
52 | 114 | Cc1ccc(N2CCN(C(=O)Cn3nc(C4=CCC(C)(C)CC4)ccc3=O)CC2)cn1 [Example 443] | –
